Data from patent US12606541B2, “PPARg modulators and methods of use” (Eisai R&D Management Co., Ltd., priority 2020, dated 2026).

Molecular target: T1, His6-TEV-PPARγ-(234-505) (Homo sapiens, UniProt P37231)
T1 construct: The His6-TEV-PPARγ-(234-505) protein for assay was expressed and purified; TEV cleavage site (N); made in house
T1 sequence (P37231 234-505): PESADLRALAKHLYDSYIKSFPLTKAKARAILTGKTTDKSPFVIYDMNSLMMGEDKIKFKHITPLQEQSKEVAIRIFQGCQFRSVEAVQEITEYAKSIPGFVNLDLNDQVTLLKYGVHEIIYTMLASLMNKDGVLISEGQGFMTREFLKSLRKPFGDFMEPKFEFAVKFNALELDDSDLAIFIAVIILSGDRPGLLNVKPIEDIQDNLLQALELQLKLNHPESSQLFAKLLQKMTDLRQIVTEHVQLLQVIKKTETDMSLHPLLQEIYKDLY
Experiment: TR-FRET Assay to Measure Co-R Peptide Recruitment to PPARγ
Format: biochemical
Settings: Co-R peptide recruitment to PPARγ; read-out: TR-FRET AC50
Summary of the method: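 His-tagged PPARγ (or controls) was preincubated with compound for 20 minutes at room temperature, then 5 nM anti-His terbium antibody and 200 nM FITC-labeled SMRT-ID2 corepressor peptide (final) were added for a further hour. TR-FRET signal was normalized to percent response using 500 nM T0070907 and DMSO controls.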

Row | SMILES | AC50
1 | COc1cc(-c2cc(C(=O)N3CCC(C#N)(C(=O)NCc4cccc(Cl)c4)CC3)n[nH]2)c(Cl)cn1 [1-[5-(5-chloro-2-methoxypyridin-4-yl)-1H-pyrazole-3-carbonyl]-N-[(3-chlorophenyl)methyl]-4-cyanopiperidine-4-carboxamide] | > 1 µM
2 | COc1cc(-c2cc(C(=O)N3CCC(OC)(C(=O)NCc4cccc(Cl)c4)CC3)n[nH]2)c(Cl)cn1 [1-[5-(5-chloro-2-methoxypyridin-4-yl)-1H-pyrazole-3-carbonyl]-N-[(3-chlorophenyl)methyl]-4-methoxypiperidine-4-carboxamide] | > 1 µM
3 | CCC1(CNC(=O)C2CCN(C(=O)c3cc(-c4cc(OC)ncc4Cl)[nH]n3)CC2)COC1 [1-[5-(5-chloro-2-methoxypyridin-4-yl)-1H-pyrazole-3-carbonyl]-N-[(3-ethyloxetane-3-yl)methyl]piperidine-4-carboxamide] | > 1 µM
4 | COc1cc(-c2cc(C(=O)N3CCC(C(=O)NCC4(F)COC4)CC3)n[nH]2)c(Cl)cn1 [1-[5-(5-chloro-2-methoxypyridin-4-yl)-1H-pyrazole-3-carbonyl]-N-[(3-fluorooxetan-3-yl)methyl]piperidine-4-carboxamide] | > 1 µM
5 | COc1cc(-c2cc(C(=O)N3CCC(C(=O)NCC4(C)COC4)CC3)n[nH]2)c(Cl)cn1 [1-[5-(5-chloro-2-methoxypyridin-4-yl)-1H-pyrazole-3-carbonyl]-N-[(3-methyloxetan-3-yl)methyl]piperidine-4-carboxamide] | > 1 µM
6 | COc1cc(-c2cc(C(=O)N3CCC(C(=O)NCC4(C)CCOC4)CC3)n[nH]2)c(Cl)cn1 (stereo not drawn) [1-[5-(5-chloro-2-methoxypyridin-4-yl)-1H-pyrazole-3-carbonyl]-N-[(3-methyloxolan-3-yl)methyl]piperidine-4-carboxamide] | > 1 µM
7 | COc1cc(-c2cc(C(=O)N3CCC(C(=O)NCC4CC(F)(F)C(=O)N4)CC3)n[nH]2)c(Cl)cn1 (stereo not drawn) [1-[5-(5-chloro-2-methoxypyridin-4-yl)-1H-pyrazole-3-carbonyl]-N-[(4,4-difluoro-5-oxopyrrolidin-2-yl)methyl]piperidine-4-carboxamide] | > 1 µM
8 | COc1cc(-c2cc(C(=O)N3CCC(C(=O)NCc4nc(C)c(C)s4)CC3)n[nH]2)c(Cl)cn1 [1-[5-(5-chloro-2-methoxypyridin-4-yl)-1H-pyrazole-3-carbonyl]-N-[(4,5-dimethyl-1,3-thiazol-2-yl)methyl]piperidine-4-carboxamide] | > 1 µM
9 | COc1cc(-c2cc(C(=O)N3CCC(C(=O)NCc4c(C)cc(C)[nH]c4=O)CC3)n[nH]2)c(Cl)cn1 [1-[5-(5-chloro-2-methoxypyridin-4-yl)-1H-pyrazole-3-carbonyl]-N-[(4,6-dimethyl-2-oxo-1,2-dihydropyridin-3-yl)methyl]piperidine-4-carboxamide] | > 1 µM
10 | COc1cc(-c2cc(C(=O)N3CCC(C(=O)NCc4cc(Cl)ccn4)CC3)n[nH]2)c(Cl)cn1 [1-[5-(5-chloro-2-methoxypyridin-4-yl)-1H-pyrazole-3-carbonyl]-N-[(4-chloropyridin-2-yl)methyl]piperidine-4-carboxamide] | > 1 µM
11 | COc1cc(-c2cc(C(=O)N3CCC(C(=O)NCc4cc(C#N)ccn4)CC3)n[nH]2)c(Cl)cn1 [1-[5-(5-chloro-2-methoxypyridin-4-yl)-1H-pyrazole-3-carbonyl]-N-[(4-cyanopyridin-2-yl)methyl]piperidine-4-carboxamide] | > 1 µM
12 | COc1cc(-c2cc(C(=O)N3CCC(C(=O)NCc4cc(F)ccn4)CC3)n[nH]2)c(Cl)cn1 [1-[5-(5-chloro-2-methoxypyridin-4-yl)-1H-pyrazole-3-carbonyl]-N-[(4-fluoropyridin-2-yl)methyl]piperidine-4-carboxamide] | > 1 µM
13 | COc1cc(-c2cc(C(=O)N3CCC(C(=O)NCC4(O)CCOCC4)CC3)n[nH]2)c(Cl)cn1 [1-[5-(5-chloro-2-methoxypyridin-4-yl)-1H-pyrazole-3-carbonyl]-N-[(4-hydroxyoxan-4-yl)methyl]piperidine-4-carboxamide] | > 1 µM
14 | COc1cc(-c2cc(C(=O)N3CCC(C(=O)NCC4CN(C)CCO4)CC3)n[nH]2)c(Cl)cn1 (stereo not drawn) [1-[5-(5-chloro-2-methoxypyridin-4-yl)-1H-pyrazole-3-carbonyl]-N-[(4-methylmorpholin-2-yl)methyl]piperidine-4-carboxamide] | > 1 µM
15 | COc1cc(-c2cc(C(=O)N3CCC(C(=O)NCc4cc(C)ccn4)CC3)n[nH]2)c(Cl)cn1 [1-[5-(5-chloro-2-methoxypyridin-4-yl)-1H-pyrazole-3-carbonyl]-N-[(4-methylpyridine-2-yl)methyl]piperidine-4-carboxamide] | > 1 µM
16 | COc1cc(-c2cc(C(=O)N3CCC(C(=O)NCc4n[nH]c(=O)c5ccccc45)CC3)n[nH]2)c(Cl)cn1 [1-[5-(5-chloro-2-methoxypyridin-4-yl)-1H-pyrazole-3-carbonyl]-N-[(4-oxo-3,4-dihydrophthalazin-1-yl)methyl]piperidine-4-carboxamide] | > 1 µM
17 | COc1cc(-c2cc(C(=O)N3CCC(C(=O)N[C@@H]4CCOc5c(F)ccc(F)c54)CC3)n[nH]2)c(Cl)cn1 [1-[5-(5-chloro-2-methoxypyridin-4-yl)-1H-pyrazole-3-carbonyl]-N-[(4R)-5,8-difluoro-3,4-dihydro-2H-1-benzopyran-4-yl]piperidine-4-carboxamide] | > 1 µM
18 | COc1cc(-c2cc(C(=O)N3CCC(C(=O)NCc4noc(C)n4)CC3)n[nH]2)c(Cl)cn1 [1-[5-(5-chloro-2-methoxypyridin-4-yl)-1H-pyrazole-3-carbonyl]-N-[(5-methyl-1,2,4-oxadiazol-3-yl)methyl]piperidine-4-carboxamide] | > 1 µM
19 | COc1cc(-c2cc(C(=O)N3CCC(C(=O)NCc4cc(C)on4)CC3)n[nH]2)c(Cl)cn1 [1-[5-(5-chloro-2-methoxypyridin-4-yl)-1H-pyrazole-3-carbonyl]-N-[(5-methyl-1,2-oxazol-3-yl)methyl]piperidine-4-carboxamide] | > 1 µM
20 | COc1cc(-c2cc(C(=O)N3CCC(C(=O)NCc4cnc(C)cn4)CC3)n[nH]2)c(Cl)cn1 [1-[5-(5-chloro-2-methoxypyridin-4-yl)-1H-pyrazole-3-carbonyl]-N-[(5-methylpyrazin-2-yl)methyl]piperidine-4-carboxamide] | > 1 µM
21 | COc1cc(-c2cc(C(=O)N3CCC(C(=O)NCc4ccc(C#N)nc4)CC3)n[nH]2)c(Cl)cn1 [1-[5-(5-chloro-2-methoxypyridin-4-yl)-1H-pyrazole-3-carbonyl]-N-[(6-cyanopyridin-3-yl)methyl]piperidine-4-carboxamide] | > 1 µM
22 | COc1ccc(CNC(=O)C2CCN(C(=O)c3cc(-c4cc(OC)ncc4Cl)[nH]n3)CC2)cn1 [1-[5-(5-chloro-2-methoxypyridin-4-yl)-1H-pyrazole-3-carbonyl]-N-[(6-methoxypyridin-3-yl)methyl]piperidine-4-carboxamide] | > 1 µM
23 | COc1cc(-c2cc(C(=O)N3CCC(C(=O)NCc4cccc(C)n4)CC3)n[nH]2)c(Cl)cn1 [1-[5-(5-chloro-2-methoxypyridin-4-yl)-1H-pyrazole-3-carbonyl]-N-[(6-methylpyridin-2-yl)methyl]piperidine-4-carboxamide] | > 1 µM
24 | COc1cc(-c2cc(C(=O)N3CCC(C(=O)NCc4ccc(C)nc4)CC3)n[nH]2)c(Cl)cn1 [1-[5-(5-chloro-2-methoxypyridin-4-yl)-1H-pyrazole-3-carbonyl]-N-[(6-methylpyridin-3-yl)methyl]piperidine-4-carboxamide] | > 1 µM
25 | COc1cc(-c2cc(C(=O)N3CCC(C(=O)NCc4cccc(=O)[nH]4)CC3)n[nH]2)c(Cl)cn1 [1-[5-(5-chloro-2-methoxypyridin-4-yl)-1H-pyrazole-3-carbonyl]-N-[(6-oxo-1,6-dihydropyridin-2-yl)methyl]piperidine-4-carboxamide] | > 1 µM
26 | COc1cc(-c2cc(C(=O)N3CCC(C(=O)NCc4ccc(=O)[nH]c4)CC3)n[nH]2)c(Cl)cn1 [1-[5-(5-chloro-2-methoxypyridin-4-yl)-1H-pyrazole-3-carbonyl]-N-[(6-oxo-1,6-dihydropyridin-3-yl)methyl]piperidine-4-carboxamide] | > 1 µM
27 | COc1cc(-c2cc(C(=O)N3CCC(C(=O)NCc4nccc(=O)[nH]4)CC3)n[nH]2)c(Cl)cn1 [1-[5-(5-chloro-2-methoxypyridin-4-yl)-1H-pyrazole-3-carbonyl]-N-[(6-oxo-1,6-dihydropyrimidin-2-yl)methyl]piperidine-4-carboxamide] | > 1 µM
28 | COc1cc(-c2cc(C(=O)N3CCC(C(=O)N[C@@H]4CCCc5cccnc54)CC3)n[nH]2)c(Cl)cn1 [1-[5-(5-chloro-2-methoxypyridin-4-yl)-1H-pyrazole-3-carbonyl]-N-[(8R)-5,6,7,8-tetrahydroquinolin-8-yl]piperidine-4-carboxamide] | > 1 µM
29 | COc1cc(-c2cc(C(=O)N3CCC(C(=O)N[C@H]4CCCc5cccnc54)CC3)n[nH]2)c(Cl)cn1 [1-[5-(5-chloro-2-methoxypyridin-4-yl)-1H-pyrazole-3-carbonyl]-N-[(8S)-5,6,7,8-tetrahydroquinolin-8-yl]piperidine-4-carboxamide] | > 1 µM
30 | COc1cc(-c2cc(C(=O)N3CCC(C(=O)NCC4CCCCO4)CC3)n[nH]2)c(Cl)cn1 (stereo not drawn) [1-[5-(5-chloro-2-methoxypyridin-4-yl)-1H-pyrazole-3-carbonyl]-N-[(oxan-2-yl)methyl]piperidine-4-carboxamide] | > 1 µM
